# From patent US20200369626A1 (Washington University, priority 2019, published 2020)
# Where two headings read alike, the source gives them in different places.
# Tests used:
# S1PR1 = biological target: T1, S1PR1 (Homo sapiens, UniProt P21453); experiment: competitive [^32P]S1P binding assay on cell membranes, S1PR1; conditions: Table 5
# T1 construct: purchased
# Protocol: (§1) The test compounds were dissolved in DMSO and diluted into test samples with increasing concentrations with assay buffer. Commercial cell membranes expressing recombinant human S1PR were diluted with assay buffer to make a 20-40 μg/mL of solution. […] The plate was incubated for 60 min at room temperature with shaking and terminated by collecting the membranes onto 96-well glass fiber (GF/B) filtration plates (Millipore, Billerica, Mass.). Each filter was washed with 200 μL of assay buffer for a total of five washes. The filter bound radionuclide was measured by a Beckman LS 3801 scintillation counter using Cherenkov counting. The IC50 values were fitted from GraphPad Prism 6 using one site Nonlinear Regression.
# S1PR3 = biological target: T2, S1PR3 (Homo sapiens, UniProt Q99500); experiment: competitive [^32P]S1P binding assay on cell membranes, S1PR3; conditions: Table 5
# T2 construct: purchased
# Protocol: as §1
# S1PR2 = biological target: T3, S1PR2 (Homo sapiens, UniProt O95136); experiment: competitive [^32P]S1P binding assay on cell membranes, S1PR2
# T3 construct: purchased
# [1] = [^32P]S1P competition, IC50 ± SD, second Table 1, read-out: S2PR2 IC50
# [2] = [^32P]S1P competition, read-out: IC50 value, S1PR2 binding
# T2 sequence (Q99500 whole entry): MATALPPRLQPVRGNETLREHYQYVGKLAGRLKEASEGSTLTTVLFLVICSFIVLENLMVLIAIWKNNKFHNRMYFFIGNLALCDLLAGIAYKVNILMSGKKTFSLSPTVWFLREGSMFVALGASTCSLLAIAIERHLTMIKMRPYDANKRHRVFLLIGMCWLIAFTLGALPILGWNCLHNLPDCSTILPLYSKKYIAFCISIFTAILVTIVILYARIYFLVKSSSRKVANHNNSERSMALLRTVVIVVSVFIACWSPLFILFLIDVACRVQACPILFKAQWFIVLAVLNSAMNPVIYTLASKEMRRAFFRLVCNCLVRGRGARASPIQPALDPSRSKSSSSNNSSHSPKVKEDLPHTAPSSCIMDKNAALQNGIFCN
# T1 sequence (P21453 whole entry): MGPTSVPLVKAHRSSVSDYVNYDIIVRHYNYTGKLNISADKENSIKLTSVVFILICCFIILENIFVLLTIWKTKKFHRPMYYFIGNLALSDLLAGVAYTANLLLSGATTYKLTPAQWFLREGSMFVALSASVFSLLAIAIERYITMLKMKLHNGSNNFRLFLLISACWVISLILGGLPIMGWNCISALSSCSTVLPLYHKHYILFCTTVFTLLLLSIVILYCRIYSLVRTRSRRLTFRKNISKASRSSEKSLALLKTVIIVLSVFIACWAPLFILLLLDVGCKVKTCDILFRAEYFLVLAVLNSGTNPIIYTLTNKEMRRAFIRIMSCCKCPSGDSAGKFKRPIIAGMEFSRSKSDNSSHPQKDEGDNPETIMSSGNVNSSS
# T3 sequence (O95136 whole entry): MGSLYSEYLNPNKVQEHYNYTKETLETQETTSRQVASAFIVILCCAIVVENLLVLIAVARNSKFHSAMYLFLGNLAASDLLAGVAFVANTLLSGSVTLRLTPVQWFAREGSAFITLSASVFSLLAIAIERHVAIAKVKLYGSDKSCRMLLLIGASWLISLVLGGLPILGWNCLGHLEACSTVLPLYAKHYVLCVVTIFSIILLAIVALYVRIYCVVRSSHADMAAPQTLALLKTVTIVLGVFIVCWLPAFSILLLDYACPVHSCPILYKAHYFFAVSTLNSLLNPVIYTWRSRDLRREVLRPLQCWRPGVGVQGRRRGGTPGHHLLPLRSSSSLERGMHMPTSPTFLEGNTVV
IC50 (S1PR1) [µM],IC50 (S1PR3) [µM],"IC50 (S1PR2; Table 5, read-out: IC50 S1PR2) [µM]",SMILES,also measured
> 1,> 1,0.165 ± 0.035,CC(C)CC1(O)CCN(C(=O)Nc2cc(Oc3ccc(F)cc3)cc(C(F)(F)F)c2)CC1 [TZ51-032],–
> 1,> 1,–,CC(C)CC1(O)CCN(C(=O)Nc2cc(Oc3ccc(F)cc3)cc(Sc3ccc(S(C)(=O)=O)cc3)c2)CC1 [TZ57-031],–
> 1,> 1,–,CCC(CC)CC1(O)CCN(C(=O)Nc2cc(Oc3ccc(F)cc3)cc(Sc3ccc(S(C)(=O)=O)cc3)c2)CC1 [TZ57-032],–
> 1,> 1,–,CCC(CC)CC1(O)CCN(C(=O)Nc2cc(Oc3ccc(F)cc3)cc(Oc3ccc(C(=O)NCCF)cc3)c2)CC1 [TZ57-028],–
> 1,> 1,0.073 ± 0.011,CCC(CC)CC1(O)CCN(C(=O)Nc2cc(Oc3ccc(F)cc3)cc(Oc3ccc4c(c3)CCN(C)C4=O)c2)CC1 [TZ57-089],–
> 1,> 1,0.284 ± 0.027,CNC(=O)c1ccc(Oc2cc(NC(=O)N3CCC(O)(CC(C)C)CC3)cc(C(F)(F)F)c2)cc1 [TZ51-024],–
> 1,> 1,0.0057 ± 0.0005,"COc1ccc(NC(=O)Cn2c(=O)c3ccccc3n(CC(=O)Nc3cc(Cl)c(OC)cc3OC)c2=O)cc1 [TZ59-104, N-(5-Chloro-2,4-dimethoxyphenyl)-2-(3-(2-((4-methoxyphenyl)amino)-2-oxoethyl)-2,4-dioxo-3,4-dihydroquinazolin-1(2H)-yl)acetamide]",–
–,–,0.0666 ± 0.0103,"COc1cc(OC)c(NC(=O)Cn2c(=O)n(CC(=O)NCCO)c(=O)c3ccccc32)cc1Cl [TZ59-130, N-(5-Chloro-2,4-dimethoxyphenyl)-2-(3-(2-((2-hydroxyethyl)amino)-2-oxoethyl)-2,4-dioxo-3,4-dihydroquinazolin-1(2H)-yl)acetamide]",–
–,–,> 1,"COc1cc(OC)c(NC(=O)Cn2c(=O)n(CC(=O)Nc3cc(Cl)nc(Cl)c3)c(=O)c3ccccc32)cc1Cl [TZ59-112, N-(5-Chloro-2,4-dimethoxyphenyl)-2-(3-(2-((2,6-dichloropyridin-4-yl)amino)-2-oxoethyl)-2,4-dioxo-3,4-dihydroquinazolin-1(2H)-yl)acetamide]",–
–,–,0.085 ± 0.01,CCOc1ccc(C(=O)Cn2c(=O)n(CCCC(=O)NC3CCCC3)c(=O)c3ccccc32)cc1Cl [TZ62-048],–
–,–,–,"CCC(CC)CC1(O)CCN(C(=O)Nc2cc(OCCF)cc(Oc3ccc(F)cc3)c2)CC1 [Compound 11a, 4-(2-Ethylbutyl)-N-(3-(2-fluoroethoxy)-5-(4-fluorophenoxy)phenyl)-4-hydroxypiperidine-1-carboxamide]",IC50 (S1PR2; [1]): > 1 µM; IC50 (S1PR2; [2]): > 1 µM
–,–,–,"O=[N+]([O-])c1cc(Oc2ccc(F)cc2)cc(-n2cccn2)c1 [Compound 15b, 1-(3-(4-Fluorophenoxy)-5-nitrophenyl)-1H-pyrazole]",IC50 (S1PR2; [2]): > 1 µM
–,–,> 1,CCOc1ccc(C(=O)Cn2c(=O)n(CCF)c(=O)c3ccccc32)cc1Cl [TZ62-100],–
–,–,–,"CC(C)CC1(O)CCN(C(=O)Nc2cc(Oc3ccc(S(C)(=O)=O)cc3)cc(C(F)(F)F)c2)CC1 [Compound 25h, 4-Hydroxy-4-isobutyl-N-(3-(4-(methylsulfonyl)phenoxy)-5-(trifluoromethyl)phenyl)piperidine-1-carboxamide]",IC50 (S1PR2; [1]): 0.296 µM
–,–,0.293 ± 0.069,CCOc1ccc(C(=O)Cn2c(=O)n(CCCC(=O)NC3CCCC3)c(=O)c3cc(Cl)ccc32)cc1Cl [TZ62-038],–
–,–,–,"CCC(CC)CC1(O)CCN(C(=O)Nc2cc(Oc3ccc(F)cc3)cc(-n3cccn3)c2)CC1 [Compound 17b, 4-(2-Ethylbutyl)-N-(3-(4-fluorophenoxy)-5-(1H-pyrazol-1-yl)phenyl)-4-hydroxypiperidine-1-carboxamide]",IC50 (S1PR2; [1]): > 1 µM
–,–,> 1,CCC(CC)CC1(O)CCN(C(=O)Nc2cc(N(C(=O)OC(C)(C)C)c3ccc(S(C)(=O)=O)cc3)cc(C(F)(F)F)c2)CC1 [TZ59-061],–
–,–,> 1,COc1cc(OC)c(NC(=O)Cn2c(=O)n(CCO)c(=O)c3ccccc32)cc1Cl [TZ62-082],–
–,–,> 1,CCC(CC)CC1(O)CCN(C(=O)Nc2cc(Oc3ccc(F)cc3)cc(-n3cccn3)c2)CC1 [TZ57-016],–
